Measurements: patent US20170210723A1, “MOLECULES HAVING PESTICIDAL UTILITY, AND INTERMEDIATES, COMPOSITIONS, AND PROCESSES, RELATED THERETO” (priority 2016, published 2017)

Tests used:
Type in all cases: in vivo
[1] = test system: Cabbage Looper (Trichoplusia ni); assay: Bioassays on CL, 128-well diet tray assay; conditions: Trichoplusia ni, 168 h; 50 μg/cm^2 on artificial diet, second instar larvae, five to seven days; read-out: CL % Control (or Mortality) rating
How it was run: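 Test molecule at 50 μg/cm^2 applied to the artificial diet surface (acetone-water) and dried; one to five second-instar T. ni larvae per well, eight wells per treatment, held at 25° C., 14:10 light-dark for five to seven days. Percent mortality averaged over wells.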

[2] = test system: Green Peach Aphid (Myzus persicae); assay: Bioassays on Green Peach Aphid, foliar spray on cabbage seedlings; conditions: 72 h, 200 ppm spray on cabbage seedlings, three days, Abbott corrected % control, read-out: GPA % Control (or Mortality) rating
Method: Cabbage seedlings grown in 3-inch pots, with 2-3 small (3-5 cm) true leaves, were used as test substrate. The seedlings were infested with 20-50 GPA (wingless adult and nymph stages) one day prior to chemical application. Four pots with individual seedlings were used for each treatment. Test molecules (2 mg) were dissolved in 2 mL of acetone/methanol (1:1) solvent, forming stock solutions of 1000 ppm test molecule. The stock solutions were diluted 5× with 0.025% Tween 20 in water to obtain the solution at 200 ppm test molecule. A hand-held aspirator-type sprayer was used for spraying a solution to both sides of […] leaves until runoff. Reference plants (solvent check) were sprayed with the diluent only containing 20% by volume of acetone/methanol (1:1) solvent. Treated plants were held in a holding room for three days at approximately 25° C. and ambient relative humidity (RH) prior to grading. Evaluation was conducted by counting the number of live aphids per plant under a microscope. Percent Control was measured by using Abbott's correction formula (W. S. Abbott, “A Method of Computing the Effectiveness of an Insecticide” J. Econ. Entomol. 18 (1925), pp. 265-267) as follows.
Corrected % Control=100*(X−Y)/X • where • X=No. of live aphids on solvent check plants and • Y=No. of live aphids on treated plants

[3] = test system: Beet Armyworm (Spodoptera exigua); assay: Bioassays on BAW, 128-well diet tray assay; conditions: Spodoptera exigua, 168 h; 50 μg/cm^2 on artificial diet, second instar larvae, five to seven days; read-out: BAW % Control (or Mortality) rating
[4] = test system: Yellow Fever Mosquito (Aedes aegypti); assay: Bioassays on Yellow Fever Mosquito larvae, 96-well plate; conditions: from 4000 ppm DMSO master plate, about 1 day-old larvae, 3 days
How it was run: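 Aedes aegypti larvae about 1 day old, in water with liver powder, exposed in 96-well plates to compounds from a 4000 ppm DMSO master solution diluted in 90:10 water:acetone. Plates covered and held at room temperature for 3 days, then each well scored for mortality; 6 replicate plates.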

Compound `CCS(=O)(=O)C[C@@H](C)NC(=O)c1ccc(/C=C/C(c2cc(Cl)c(Cl)c(Cl)c2)C(F)(F)F)cc1C(F)(F)F` (stereo partly drawn) [F68, N—((R)-1-(Ethylsulfonyl)propan-2-yl)-4-((E)-4,4,4-trifluoro-3-(3,4,5-trichlorophenyl)but-1-en-1-yl)-2-(trifluoromethyl)benzamide] has a mortality at 50 µg/cm2 [1] of 50 to 100%, a mortality at 200 ppm [2] of 0 to 80% and a mortality at 50 µg/cm2 [3] of 50 to 100%. The “YFM % Control (or Mortality) rating” value [4] was “A (80-100)”.

With `CCC[S+]([O-])C[C@@H](C)NC(=O)c1ccc(/C=C/C(c2cc(Cl)c(Cl)c(Cl)c2)C(F)(F)F)cc1C(F)(F)F` (stereo partly drawn) [F111, N-((2R)-1-(Propylsulfinyl)propan-2-yl)-4-((E)-4,4,4-trifluoro-3-(3,4,5-trichlorophenyl)but-1-en-1-yl)-2-(trifluoromethyl)benzamide] the mortality at 50 µg/cm2 [1] was 50 to 100%, the mortality at 200 ppm [2] was 0 to 80% and the mortality at 50 µg/cm2 [3] was 50 to 100%. For the same compound, the “YFM % Control (or Mortality) rating” value [4] was “A (80-100)”.

With `C[C@H](CSCCF)NC(=O)c1ccc(/C=C/C(c2cc(Cl)c(Cl)c(Cl)c2)C(C)(F)F)cc1C(F)(F)F` (stereo partly drawn) [F119, 4-((E)-4,4-Difluoro-3-(3,4,5-trichlorophenyl)pent-1-en-1-yl)-N—((R)-1-((2-fluoroethyl)thio)propan-2-yl)-2-(trifluoromethyl)benzamide] the mortality at 50 µg/cm2 [1] was 50 to 100%, the mortality at 200 ppm [2] was 0 to 80% and the mortality at 50 µg/cm2 [3] was 50 to 100%. For the same compound, the “YFM % Control (or Mortality) rating” value [4] was “A (80-100)”.
